Our source for the TGI values is PubChem BioAssay (NCI).

Test systems include 786-0 renal; CAKI-1 renal; CCRF-CEM leukemia; DU-145 prostate; IGROV1 ovarian; MDA-MB-231 breast; MDA-MB-435; NCI-H23 lung; NCI-H460 lung; NCI-H522 lung; NCI/ADR-RES ovarian; OVCAR-3 ovarian; OVCAR-4 ovarian; OVCAR-5 ovarian; SF-539 CNS; SR leukemia; SW-620 colon; T-47D breast; TK-10 renal; DMS 114 small cell lung.
What all share (assay): DTP human tumour cell line panel, 48 h

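Following 48 hours of exposure in 96-well plates, responses at five concentrations were used to interpolate endpoints linearly. TGI marks complete inhibition of growth.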

Take `CC(C)=CCC(O)[C@](C)(O)[C@H]1[C@H](O)C[C@@]2(C)[C@@H]3CCc4cc(O)c(OC5OC(CO)C(O)C(O)C5O)cc4C3(C)C(=O)C[C@]12C` (stereo not given in full): the TGI in the assay with 786-0 renal, with CAKI-1 renal, in the assay with CCRF-CEM leukemia, in the assay on DU-145 prostate, in the assay with IGROV1 ovarian and with MDA-MB-231 breast was greater than 100 µM each time. Besides, the concentration for total growth inhibition (TGI) with MDA-MB-435, in the assay with NCI-H23 lung, with NCI-H460 lung, in the assay with NCI-H522 lung, in the assay with NCI/ADR-RES ovarian and with OVCAR-3 ovarian was greater than 100 µM each time. Also, the TGI with OVCAR-4 ovarian, in the assay with OVCAR-5 ovarian, in the assay on SF-539 CNS, in the assay with SR leukemia, in the assay on SW-620 colon and with T-47D breast was greater than 100 µM each time. Further, in the assay with TK-10 renal, the TGI was greater than 100 µM.
For the compound `Cc1ccc(S(=O)(=O)N/N=C2/CCCOC2)cc1`, the total growth inhibition concentration (TGI) in the assay on 786-0 renal, in the assay with CAKI-1 renal, in the assay with CCRF-CEM leukemia, in the assay on DU-145 prostate, with IGROV1 ovarian and in the assay with MDA-MB-231 breast was greater than 100 µM in each case. Also, the concentration for total growth inhibition (TGI) in the assay on MDA-MB-435, with NCI-H23 lung, in the assay with NCI-H460 lung, in the assay on NCI-H522 lung, with NCI/ADR-RES ovarian and with OVCAR-3 ovarian was greater than 100 µM throughout. Also, the TGI in the assay with OVCAR-4 ovarian, with OVCAR-5 ovarian, with SF-539 CNS, with SR leukemia, in the assay with SW-620 colon and in the assay on T-47D breast was greater than 100 µM each time. In the assay on TK-10 renal, this compound had a TGI greater than 100 µM.
For `COC(=O)c1cc2c(cc1CC(Cc1ccc3c(c1)CCCC3)C(=O)OC)CCCC2` (stereo not given), the concentration for total growth inhibition (TGI) with 786-0 renal, in the assay with CAKI-1 renal, in the assay with CCRF-CEM leukemia, with DU-145 prostate, in the assay with IGROV1 ovarian and with MDA-MB-231 breast was greater than 100 µM throughout. Further, the TGI in the assay with MDA-MB-435, with NCI-H23 lung, in the assay on NCI-H460 lung, in the assay with NCI-H522 lung, in the assay with NCI/ADR-RES ovarian and in the assay with OVCAR-3 ovarian was greater than 100 µM throughout. Moreover, the total growth inhibition concentration (TGI) in the assay on OVCAR-4 ovarian is 71.1 µM; in the assay with OVCAR-5 ovarian, greater than 100 µM; in the assay on SF-539 CNS it was greater than 100 µM; in the assay with SR leukemia, greater than 100 µM; in the assay with SW-620 colon, greater than 100 µM; in the assay with T-47D breast it was greater than 100 µM. In the assay with TK-10 renal, this compound had a TGI greater than 100 µM.
`O=C1C2C3C=C4c5ccccc5N(c5ccccc5)C4(C2C(=O)N1c1ccc([N+](=O)[O-])cc1)[C@H]1C(=O)N(c2ccc([N+](=O)[O-])cc2)C(=O)[C@@H]31` (stereo not given in full): the TGI with 786-0 renal, in the assay with CAKI-1 renal, in the assay on CCRF-CEM leukemia, in the assay on DMS 114 small cell lung, in the assay on IGROV1 ovarian and in the assay with NCI-H23 lung was greater than 100 µM throughout. Moreover, the concentration for total growth inhibition (TGI) with NCI-H460 lung, with NCI-H522 lung, in the assay on OVCAR-3 ovarian, with OVCAR-4 ovarian, with OVCAR-5 ovarian and with SF-539 CNS was greater than 100 µM throughout. In addition, the TGI with SW-620 colon and in the assay on TK-10 renal was greater than 100 µM throughout.
For `CCN1CCN(c2nc3ccccc3c3c2CCOc2ccccc2-3)CC1`, the total growth inhibition concentration (TGI) in the assay with 786-0 renal is greater than 55.1 µM; with CAKI-1 renal it was greater than 55.3 µM; with CCRF-CEM leukemia, greater than 83.6 µM; in the assay with DU-145 prostate it was greater than 31.6 µM; with IGROV1 ovarian, greater than 58.3 µM; in the assay on MDA-MB-231 breast it was greater than 61.2 µM. Further, the TGI in the assay on MDA-MB-435 is greater than 62.7 µM; in the assay with NCI-H23 lung, greater than 100 µM; in the assay on NCI-H460 lung, greater than 73.9 µM; with NCI-H522 lung it was greater than 62.3 µM; with NCI/ADR-RES ovarian it was greater than 78.1 µM; in the assay with OVCAR-3 ovarian, greater than 100 µM. Further, the TGI with OVCAR-4 ovarian is greater than 100 µM; with OVCAR-5 ovarian, greater than 65.2 µM; in the assay with SF-539 CNS it was greater than 65.2 µM; in the assay with SR leukemia it was 24.8 µM; in the assay with SW-620 colon it was greater than 67.5 µM; with T-47D breast, greater than 69.8 µM. Moreover, the TGI in the assay with TK-10 renal was greater than 56.9 µM.
For the compound `COC(=O)C(Cc1nc2ccccc2[nH]c1=O)C(NO)C(=O)Nc1c(Cl)cc([N+](=O)[O-])cc1Cl` (stereo not given), the TGI in the assay with 786-0 renal was greater than 100 µM; with CAKI-1 renal it was greater than 100 µM; with CCRF-CEM leukemia, 65.3 µM; in the assay on DMS 114 small cell lung, 54.8 µM; in the assay with IGROV1 ovarian, greater than 100 µM; in the assay with NCI-H23 lung it was 61.1 µM. Further, the total growth inhibition concentration (TGI) in the assay with NCI-H460 lung is 44.7 µM; with NCI-H522 lung it was 31.3 µM; with OVCAR-3 ovarian, greater than 100 µM; in the assay on OVCAR-4 ovarian, greater than 100 µM; with SF-539 CNS, 56.5 µM; with SR leukemia, greater than 100 µM.
Take `CCOC(=O)c1cn2c(n1)sc1cc(Cl)ccc12`: the TGI is 26.4 µM with 786-0 renal; greater than 100 µM in the assay on CAKI-1 renal; greater than 100 µM with CCRF-CEM leukemia; greater than 100 µM with DU-145 prostate; greater than 100 µM in the assay with IGROV1 ovarian; greater than 100 µM in the assay on MDA-MB-231 breast. Moreover, the concentration for total growth inhibition (TGI) was greater than 100 µM with MDA-MB-435; greater than 100 µM in the assay on NCI-H23 lung; greater than 100 µM in the assay on NCI-H460 lung; greater than 100 µM with NCI-H522 lung; greater than 100 µM in the assay on NCI/ADR-RES ovarian; 64.5 µM in the assay on OVCAR-3 ovarian. In addition, the TGI in the assay on OVCAR-4 ovarian is greater than 100 µM; in the assay on OVCAR-5 ovarian, greater than 100 µM; in the assay on SF-539 CNS, 26 µM; with SR leukemia, greater than 100 µM; with SW-620 colon it was greater than 100 µM; in the assay with T-47D breast, greater than 100 µM. Moreover, the TGI with TK-10 renal is greater than 100 µM.
As to `COc1cc(-c2nc3ccccn3c2/N=C/c2cc(Br)cc(Br)c2O)ccc1O`, the total growth inhibition concentration (TGI) is 35.5 µM with 786-0 renal; 93.3 µM with CAKI-1 renal; 45.6 µM in the assay on CCRF-CEM leukemia; 84.3 µM in the assay with DU-145 prostate; 49.9 µM in the assay on IGROV1 ovarian; 36.3 µM in the assay with MDA-MB-231 breast. Further, the TGI in the assay with MDA-MB-435 was 72 µM; with NCI-H23 lung, 67.9 µM; with NCI-H460 lung, greater than 100 µM; in the assay on NCI-H522 lung, 58.2 µM; in the assay with NCI/ADR-RES ovarian, 64.5 µM; in the assay on OVCAR-3 ovarian it was 39 µM. Moreover, the TGI with OVCAR-4 ovarian was 61.3 µM; in the assay with OVCAR-5 ovarian, greater than 100 µM; with SF-539 CNS, 90.2 µM; with SR leukemia it was 62.7 µM; in the assay on SW-620 colon it was 71.2 µM; in the assay on T-47D breast, 74.3 µM. Also, in the assay on TK-10 renal, the TGI was 67.8 µM.
